Measurements taken from patent US11884649B2, “IRE1α inhibitors and uses thereof” (The Regents of the University of California, priority 2020, dated 2024).

What was measured:
[1] = test system: lysate kinases (HEK293/HCT116 lysate mixture); assay: Kinome selectivity profiling by kinobead competition; assay type: binding; details: 10 μM compound
Description: Prior to conducting cellular studies with PAIRs, we first performed comprehensive kinome selectivity profiling using a chemical proteomic method (FIG. 4A).^41-43 To do this, we measured the ability of 1, 2, 5, 6, PAIR, and KIRA9 to compete with lysate kinases for binding to a mixture of bead-immobilized, nonselective kinase inhibitors (kinobeads). Each compound (10 μM) was incubated with a standard kinobead matrix and a HEK293/HCT116 lysate mixture and competed kinases were quantified using mass spectrometry.
Kinome Profiling and Selectivity Kinobead Enrichment Protocol
HEK293 and HCT116 cells were plated on 15 cm plates until 90% confluent and lysed into 750 μL modified RIPA buffer (50 mM Tris, 150 mM NaCl, 10 mM NaF, 1% NP40, 0.25% sodium deoxycholate, 5% glycerol, pH 7.8) containing protease inhibitor (Pierce Protease Inhibitor Tablets and 1 mM PMSF) and phosphatase inhibitor (Phosphatase inhibitor cocktail 2 and 3, Sigma Aldrich). Protein content was determined via Bradford assay. […]
Tryptic peptides were separated using a nanoAcquity UPLC instrument with 10 cm fused silica capillary columns made in house and packed with 5 μm 120 Å reverse-phase C18 beads (ReproSil-Pur®, Maisch). […] MS data was analyzed using a Thermo Orbitrap Fusion Tribrid. Raw files were analyzed using MaxQuant (Andromeda) Version 1.6.0.16. […]

IRE1α = target: T1, IRE1α (Rattus norvegicus, UniProt A0A4Y1YQ52); assay: ER stress-mediated IRE1α autophosphorylation by Phos-tag SDS-PAGE in INS-1 cells (Brefeldin-A); assay type: cell-based; details: various concentrations, 200 ng/μL Brefeldin-A (BFA) for 2 hours
T1 construct: endogenous in cells; host or cells: INS-1 rat insulinoma beta cells
Description: FIG. 21. […] Immunoblots for total IRE1α (bottom) from INS-1 cells treated with various concentrations of PAIR1 or KIRA9 followed by the addition of 200 ng/μL Brefeldin-A (BFA) for 2 hours. Samples were subjected to Phos-tag SDS-PAGE and % autophosphorylated IRE1α (top) was determined from the ratio of phosphorylated IRE1α relative to total IRE1α. Values shown are mean±SEM (n=3).
Treatment Conditions for Phostag Gels
INS-1 or IRE1α-overexpressing isogenic INS-1 cells were plated onto a 24-well Poly-D-Lysine coated tissue culture plate and grown for 48 hrs. Inhibitor or DMSO were added to the media and incubated for 1 hour at 37° C. with 5% CO2 prior to addition of ER stress agents. […] Cells were lysed directly into SDS loading buffer (50 mM Tris, 100 mM DTT, 2% SDS (w/v), 10% glycerol (v/v), and 0.1% bromophenol blue (w/v), pH 6.8) and boiled for five minutes prior to gel loading.
Phostag Acrylamide Gel Procedure
A phostag acrylamide gel recipe used to resolve phosphorylation of IRE1α has been previously established and this recipe was followed verbatim for this study.^91 Resolving gels were allowed to solidify (˜1.5 hr) before adding the stacking gel and comb and allowed to solidify (˜1 hr). Gels were run using Tris-Glycine-SDS running buffer (25 mM Tris, 192 mM glycine, 0.1% SDS, pH 8.3) at 100 V for 3-3.5 hours. […]

T1 sequence (A0A4Y1YQ52 21-977): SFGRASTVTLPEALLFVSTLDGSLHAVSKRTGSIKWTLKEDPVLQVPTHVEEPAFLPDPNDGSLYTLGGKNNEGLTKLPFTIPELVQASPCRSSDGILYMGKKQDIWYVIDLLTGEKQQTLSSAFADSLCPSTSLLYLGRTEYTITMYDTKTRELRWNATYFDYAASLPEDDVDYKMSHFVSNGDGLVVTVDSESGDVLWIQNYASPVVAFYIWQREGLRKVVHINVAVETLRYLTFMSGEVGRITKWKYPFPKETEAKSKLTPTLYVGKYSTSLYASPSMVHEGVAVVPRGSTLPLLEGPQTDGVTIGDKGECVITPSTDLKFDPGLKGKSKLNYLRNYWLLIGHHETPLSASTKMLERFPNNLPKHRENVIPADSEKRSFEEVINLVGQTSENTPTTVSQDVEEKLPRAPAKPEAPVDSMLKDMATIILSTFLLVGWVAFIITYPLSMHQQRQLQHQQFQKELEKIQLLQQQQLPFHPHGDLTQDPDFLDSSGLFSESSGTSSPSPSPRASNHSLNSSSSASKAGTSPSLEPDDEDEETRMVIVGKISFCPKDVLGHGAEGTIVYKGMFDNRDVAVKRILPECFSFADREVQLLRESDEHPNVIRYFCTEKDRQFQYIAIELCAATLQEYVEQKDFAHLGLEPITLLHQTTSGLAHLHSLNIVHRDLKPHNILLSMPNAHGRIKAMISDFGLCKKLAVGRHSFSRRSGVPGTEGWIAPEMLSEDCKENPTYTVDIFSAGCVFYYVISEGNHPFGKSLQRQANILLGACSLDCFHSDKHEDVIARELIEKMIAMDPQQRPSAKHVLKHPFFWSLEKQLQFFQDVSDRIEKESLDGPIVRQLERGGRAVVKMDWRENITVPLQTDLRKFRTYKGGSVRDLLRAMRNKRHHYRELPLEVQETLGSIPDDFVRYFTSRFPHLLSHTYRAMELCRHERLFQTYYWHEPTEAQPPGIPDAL

Compound | kinome selectivity [1] | IRE1α autophosphorylation (IRE1α)
O=S(=O)(CC(F)(F)F)Nc1ccc(Oc2ncccc2-c2ccnc(N[C@H]3CCCNC3)n2)c2ccccc12 (stereo in doubt) [PAIR1, 2,2,2-trifluoro-N-(4-(3-(2-(piperidin-3-ylamino)pyrimidin-4-yl)pyridin-2-yloxy)naphthalen-1-yl)ethanesulfonamide] | high selectivity for IRE1α | equipotently block ER stress-mediated IRE1α autophosphorylation
O=S(=O)(CCC(F)(F)F)Nc1ccc(Oc2ncccc2-c2ccnc(NC3CCCNC3)n2)c2ccccc12 (stereo not shown) [KIRA9, 3,3,3-trifluoro-N-(4-(3-(2-(piperidin-3-ylamino)pyrimidin-4-yl)pyridin-2-yloxy)naphthalen-1-yl)propane-1-sulfonamide] | equivalent potency and selectivity | equipotently block ER stress-mediated IRE1α autophosphorylation
